Assay results from ChEMBL document CHEMBL1155229, “Physical binding pocket induction for affinity prediction” (J Med Chem, 2009).

Target: T1, 5-hydroxytryptamine receptor 1A (Homo sapiens, UniProt P08908)
T1 sequence (P08908 whole entry): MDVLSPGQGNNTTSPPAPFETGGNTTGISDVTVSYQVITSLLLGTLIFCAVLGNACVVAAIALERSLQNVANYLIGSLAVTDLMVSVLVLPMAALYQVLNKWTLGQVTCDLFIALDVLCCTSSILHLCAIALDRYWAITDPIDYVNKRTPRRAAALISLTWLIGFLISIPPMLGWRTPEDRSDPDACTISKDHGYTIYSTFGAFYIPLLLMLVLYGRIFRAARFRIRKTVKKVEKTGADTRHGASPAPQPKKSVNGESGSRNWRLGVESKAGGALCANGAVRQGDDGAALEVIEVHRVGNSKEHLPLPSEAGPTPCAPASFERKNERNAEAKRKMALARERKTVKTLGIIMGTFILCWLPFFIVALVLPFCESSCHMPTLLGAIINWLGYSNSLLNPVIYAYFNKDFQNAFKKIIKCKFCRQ
Assay: Binding affinity to 5HT1A receptor

Compound | Kd (read-out: pKd (converted)) [nM] | Kd (read-out: Kd) [nM]
Clc1cccc(N2CCNCC2)c1 [CHLOROPHENYLPIPERAZINE] | 100 | 
Cc1nc2ccccn2c(=O)c1CCN1CCC(C(=O)c2ccc(F)cc2)CC1 [PIRENPERONE] | 2510 | 
COc1cccc2c1C[C@H]1CCN(CC3CC3)[C@@H]1C2 | 31.6 | 
Clc1cncc(N2CCNCC2)n1 [MK-212] | 794 | 
O=C1c2ccccc2S(=O)(=O)N1CCCCN1CCN(c2ncccn2)CC1 [IPSAPIRONE] | 3.98 | 
C=CCN1C[C@H]2c3c(O)cccc3CC[C@H]21 | 0.316 | 
C=CCN1CC[C@H]2c3ccccc3CC[C@H]21 | 1 | 
CCCN1CC[C@@H]2c3c(cccc3OC)CC[C@@H]21 | 200 | 
O=C(NCCN1CCOCC1)c1ccc(Cl)cc1 [MOCLOBEMIDE] | 5010 | 
FC(F)(F)c1cccc(C2CNCCO2)c1 (stereo not given) [FLUMEXADOL] | 251 | 
Fc1ccc([C@@H]2CCNC[C@H]2COc2ccc3c(c2)OCO3)cc1 [PAROXETINE] | 31600 | 30000
CCc1nn(CCCN2CCN(c3cccc(Cl)c3)CC2)c(=O)n1CCOc1ccccc1 [NEFAZODONE] | 158 | 
COc1ccccc1N1CCN(C[C@@H](C(=O)NC(C)(C)C)c2ccccc2)CC1 | 1.26 | 
CCCN(CCC)[C@H]1CCc2c(F)ccc(O)c2C1 | 25.1 | 
CCCN1CC[C@H]2c3c(cccc3OC)CC[C@H]21 | 0.2 | 
CN1C[C@@H](NS(=O)(=O)N(C)C)C[C@@H]2c3cccc4c3c(cn4C)C[C@H]21 [MESULERGINE] | 158 | 
CN(C)CCc1c[nH]c2ccc(O)cc12 [BUFOTENINE] | 3.16 | 
COc1cccc2c1C[C@@H]1CCN(CC3CC3)[C@@H]1C2 | 794 | 
C[C@H]1[C@H](c2ccccc2)OCCN1C [PHENDIMETRAZINE] | 12600 | 
